Laboratory results as given in US9371336B2, “Compounds for treating spinal muscular atrophy” (PTC Therapeutics Inc., priority 2012, dated 2016).

Tested on: SMN2 full length and Δ7 mRNA
Assay: Endogenous SMN2 mRNA RT-qPCR splicing assay in cultured cells (GM03813 SMA patient cells)
Format: cell-based, human
Details: Type 1 SMA patient fibroblasts GM03813, increasing concentrations, 24 hr, RT-qPCR (FIG. 4)
Experimental: The reverse transcription-quantitative PCR-based (RT-qPCR) assay is used to quantify the levels of the SMN2 full length and Δ7 mRNA in primary cells and cell lines containing the SMN2 gene treated with a test compound.
GM03813 SMA patient cells (5,000 cells/well) are seeded in 200 μL, of cell culture medium (DMEM plus 10% FBS) in 96-well flat-bottom plates and the plate is immediately swirled to ensure proper dispersal of cells, forming an even monolayer of cells. Cells are allowed to attach for at least 4-6 hrs. Test compounds are serially diluted 3.16-fold in 100% DMSO to generate a 7-point concentration curve. A solution of test compound (1 μL, 200× in DMSO) is added to each test well and 1 μL, DMSO is added to each control well. The plate is incubated for 24 hrs in a cell culture incubator (37° C., 5% CO2, 100% relative humidity). The cells are then lysed in Cells-To-Ct lysis buffer and the lysate is stored at 80° C.
SMN2-specific spliced products and GAPDH mRNA are identified using the following primers and probes in Table 5. Primer SMN FL Forward B (SEQ ID NO. 7) hybridizes to a nucleotide sequence in exon 7 (nucleotide 32 to nucleotide 54) and exon 8 (nucleotide 1 to nucleotide 4), primer SMN Δ7 Forward B (SEQ ID NO. 8) hybridizes to a nucleotide sequence in exon 6 (nucleotide 87 to nucleotide 111) and exon 8 (nucleotide 1 to nucleotide 3), primer SMN Reverse B (SEQ ID NO. 9) hybridizes to a nucleotide sequence in exon 8 (nucleotide 39 to nucleotide 62), probe SMN Probe B (SEQ ID NO. 10) hybridizes to a nucleotide sequence in exon 8 (nucleotide 7 to nucleotide 36). These primers and probes hybridize to nucleotide sequences common to human SMN1 and SMN2 mRNA. Since the SMA patient cells used in Example 3 contain only the SMN2 gene, RT-qPCR can quantify only SMN2 full-length and Δ7 mRNA.
The SMN forward and reverse primers are used at final concentrations of 0.4 μM. The SMN probe is used at a final concentration of 0.15 μM. GAPDH primers are used at final concentrations of 0.1 μM and the probe at 0.075 μM. […]
The increase of SMN2 FL and decrease in SMN2 Δ7 mRNA relative to those in cells treated with vehicle control are determined from real-time PCR data using a modified ΔΔCt method (as described in Livak and Schmittgen, Methods, 2001, 25:402-8). The amplification efficiency (E) is calculated from the slope of the amplification curve for SMN2 FL, SMN2 Δ7, and GAPDH individually. The abundances of SMN2 FL, SMN2 Δ7, and GAPDH are then calculated as (1+E)^−Ct, where Ct is the threshold value for each amplicon. […]

Row | Compound | SMN2 FL mRNA relative to vehicle | SMN2 Δ7 mRNA relative to vehicle
1 | CN1CCN(c2ccc3cc(-c4nc5c(Cl)cccc5s4)c(=O)oc3n2)CC1 [Cpd 5, 3-(4-chloro-1,3-benzothiazol-2-yl)-7-(4-methylpiperazin-1-yl)-2H-pyrano[2,3-b]pyridin-2-one] | progressively more SMN2 FL mRNA | less SMN2 Δ7 mRNA
2 | Cc1ccc2nc(-c3cc4ccc(N5CCN(C)CC5)nc4oc3=O)cn2c1 [Cpd 27, 3-(6-methylimidazo[1,2-a]pyridin-2-yl)-7-(4-methylpiperazin-1-yl)-2H-pyrano[2,3-b]pyridin-2-one] | progressively more SMN2 FL mRNA | less SMN2 Δ7 mRNA
